Test results as given in patent US8623997B2, “Variant Hhip1 protein and methods and uses thereof” (Curis, Inc., priority 2008, dated 2014).
Bridge positions count the residues as written; N and C are the ends. Ends that are not written are not given here.

Columns and labels:
[1] = target: T1, Shh (Homo sapiens, UniProt Q15465); test: NMR HSQC spectroscopy of labeled Shh with L2 loop peptides; format: binding; conditions: 2 mM of each peptide
T1 construct: yielding Shh (residues 29-197) lacking the His6-Tag; His6 (N, cleaved yes); made in house; host or cells: E. coli Rosetta 2, minimal/M9 medium with 15NH4Cl
T1 sequence (Q15465 29-197): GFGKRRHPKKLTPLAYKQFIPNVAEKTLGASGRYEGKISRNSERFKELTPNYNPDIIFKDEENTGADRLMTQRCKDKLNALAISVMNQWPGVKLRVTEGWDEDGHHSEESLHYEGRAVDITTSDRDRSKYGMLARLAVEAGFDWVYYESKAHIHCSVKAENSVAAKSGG
From the text: Shh is in the same orientation as in the Hhip-Shh complex in Panel A. Zn^2+ and Ca^2+ cations are shown. […] Surface representation of Shh with residues within 4.5 Å of Hhip (shaded gray) and Cdon (hatched areas). Area within dotted boarder indicates the boundaries of the Cdon footprint, which overlaps the Hhip binding surface. […] Shh histidine residues are shown as sticks with nitrogen atoms shaded dark. The Hhip L2 loop is shown in transparent surface and Zn^2+ cation is shown. Histidine 35 is not shown since the ordered portion of the Shh structure begins at L40. […] The spectral region of the histidine side chains is shown. […] The average mean Shh649 fluorescence intensity (MFI) of two independent dilution series was plotted versus protein concentration, with error bars denoting standard deviations. Ctrl refers to the His-6 (SEQ ID NO: 87) tagged HGF β protein. […] Shh649 (0.33 nM) was preincubated with 56 nM (170-fold excess) of Hhipβ12 wildtype or L2 mutant proteins, 5E1 or controls then bound to Ptch1 cells (black) or 293 cells (gray), washed and analyzed by FACS. Shh649 binding to Ptch1 cells in the absence of inhibitors was normalized to 100% and the data expressed as a percentage of this signal (average of two independent duplicates with standard deviations). Ctrl and CtrlFc refer to HGF β and the IgG1 isotype control Trastuzumab, respectively. […]

[2] = target: Hh signaling; test: S12 Gli luciferase assay, activation of Hh signaling; format: cell-based, murine; conditions: octylated Ihh wildtype and T154I proteins
Experimental: (§1) Shh649 (1 nM) preincubated with indicated proteins was bound to Ptch1 expressing cells, washed and analyzed by FACS. The average mean Shh649 fluorescence intensity (MFI) of two independent dilution series was plotted versus inhibitor concentration, with error bars denoting standard deviations. […] Assays were carried out using octylated Ihh wildtype and T154I proteins. Concentration dependent relative luciferase units (RLU) are plotted as the average of four independent dilution series±standard deviation and normalized to the maximal Ihh WT stimulation on each plate as 100%. […] The data is representative of three independent experiments.
Briefly, S12 cells, which are 10T1/2 fibroblasts stably transfected with 8× Gli-binding sites fused to a luciferase reporter (Frank-Kamenetsky et al. (2002) J. Biol. 1:10), were plated at 10,000 cells/well of a white-walled clear bottomed 96-well plate (Costar 3610) for 48 hrs in regular growth medium (HG-DMEM, 10% FBS, 1% glutamine). After 24 h, the media was removed and Shh-producing HT29 cells at 20,000 cells/well were plated and the co-culture was grown in regular media. […] Gli-luciferase activity was measured using a HTS-Steady Lite luciferase detection kit (Perkin Elmer); multiple assays were carried out, each in triplicate. […]

[3] = tested on: Ptch1; test: FACS assay of Shh649 binding to Ptch1 expressing 293 cells and its competition; parameters: species or system human
Experimental: as §1
Shh is in the same orientation as in the Hhip-Shh complex in Panel A. Zn^2+ and Ca^2+ cations are shown. […] Surface representation of Shh with residues within 4.5 Å of Hhip (shaded gray) and Cdon (hatched areas). Area within dotted boarder indicates the boundaries of the Cdon footprint, which overlaps the Hhip binding surface. […] Shh histidine residues are shown as sticks with nitrogen atoms shaded dark. The Hhip L2 loop is shown in transparent surface and Zn^2+ cation is shown. Histidine 35 is not shown since the ordered portion of the Shh structure begins at L40. […] The spectral region of the histidine side chains is shown. […] The average mean Shh649 fluorescence intensity (MFI) of two independent dilution series was plotted versus protein concentration, with error bars denoting standard deviations. Ctrl refers to the His-6 (SEQ ID NO: 87) tagged HGF β protein. […] Shh649 (0.33 nM) was preincubated with 56 nM (170-fold excess) of Hhipβ12 wildtype or L2 mutant proteins, 5E1 or controls then bound to Ptch1 cells (black) or 293 cells (gray), washed and analyzed by FACS. Shh649 binding to Ptch1 cells in the absence of inhibitors was normalized to 100% and the data expressed as a percentage of this signal (average of two independent duplicates with standard deviations). Ctrl and CtrlFc refer to HGF β and the IgG1 isotype control Trastuzumab, respectively. The data is representative of at least three independent experiments.
Shh649, conjugated to Dylight 649 (Pierce) at its C-terminus (vide supra), was incubated at 0.33 or 1 nM for 1 h on ice with various Hhip or control proteins prior to incubation with HEK-293 cells (293) or 293 cells expressing full length human Patched-1 (Ptch1-293 clone 10) (Carpenter D. et al. (1998) Proc. Natl. Acad. Sci. USA 95:13630-13634) in FACS buffer (3% FBS in PBS) for 1 h on ice. After washing 3 times in FACS buffer, live cells (sorted by propidium iodide exclusion) were analyzed by flow cytometry in the APC channel using a FACSCalibur (BD Biosciences). Control proteins included His6-Shh, His6-Ihh, HGF β-His639, Trastuzumab (Genentech, Inc.) as a human IgG1 isotype control for Hhip1β12-Fc, and mIgG1 (Molecular Probes Z25105) as a murine Mab control for anti-Shh 5E1 Mab34.

Substance	displacement of Ptch1 L2-like peptide from Shh by ^13C, ^1H-HSQC [1]	EC50 [2] [nM]	competition of Shh649 binding to Ptch1 cells (in words) [3]
GCGMITLDDMEEMDGLSDFCG (disulfide 2-20 (inferred); listed as Homo sapiens) [Hhip1β12 L2 peptide]	displaces Ptch1 L2-like peptide from Shh	–	–
Ihh: human Indian Hedgehog, residues 29-202	–	16	dose dependent manner
T154I: type A1 brachydactyly mutant Ihh T154I	–	330	–
